Measured values: patent US11753626B2, “Tumor cell suspension cultures and related methods” (Beijing Percans Oncology Co., Ltd., priority 2016, dated 2023)

Tested on: tumor cell clusters from colorectal cancer patients
Test: ex vivo drug sensitivity assay of tumor cell clusters in suspension culture (Edu incorporation)
Assay type: cell-based, human
Conditions: FIG. 4; test conditions of FIG. 3B; short-term suspension culture in defined growth medium
Protocol: Briefly, the non-tumor tissues and the necrotic fractions were carefully removed from the tumor specimen. The tumor tissues were cut into small pieces less than 1 mm in diameter using scissors. Minced tumor fractions were transferred into a sterile 100-ml triangle glass flask loaded with a magnet stir bar. A 10-15 ml digestion media containing 0.25 U/ml Liberase DH was added into the minced tumor tissues to start enzyme digestion. The enzyme mixture was incubated at 37° C. for 1-2 hours with moderate stirring. The partially digested tumor cell clusters were filtered through a 100-μm cell retainer. The filtrates were re-filtered through a 40-μm cell restrainer. The tumor cell clusters retained on the 40-μm cell restrainer was collected, wash twice with HBSS, then re-suspended in a defined growth media supplemented with cell growth factors and small molecule inhibitors.
For ex vivo drug sensitivity assays, the tumor cell clusters were recovered in a defined growth medium overnight. The defined growth medium was StemPro hESC SFM supplement with Nicotinamide, Wnt3A, Noggin, R-spondin-1, and Y27632. The tumor cell clusters were then exposed to drug (e.g., Docetaxel at 2 μM (Cmax)) for 24 hours before the drug was washed away. Following exposure with drug, the tumor cell clusters were labeled with 5-ethynyl-2′-deoxyuridine (Edu) to assess the tumor cell proliferation rates. The labeling started at 48 hours after the drug exposure and continued for 96 hours. In the control group, tumor cell clusters received no drug exposure with media change, but were similarly labeled with Edu. The labeled tumor cell clusters were dissociated into single cells and fixed. The fixed cells were stained with Hoechst 33342 in PBS containing 0.2% Triton X-100 overnight at 4° C. The incorporated Edu was detected by Click-iT reaction where fixed cells were incubated with a reaction mixture containing 1× Click-iT Edu reaction buffer, CuSO4, and azide-conjugated Alexa Fluor dye in the dark. The stained cells were washed with PBS before being distributed into a black wall plate for image acquisition and analysis.
For image acquisition and analysis, the stained tumor cells were imaged by a high-content screening (HCS) platform (Thermo Scientific Cellomics ArrayScan XTi HCS reader). The 10× objective was used to collect images. Twenty-five fields were imaged for each well, and more than 3000 cells were captured for the analysis. From the images two fluorescent signals were obtained from the HCS reader. Blue fluorescent signals recorded nucleus signals stained with Hoechst 33342, and green fluorescent signal detected the Edu incorporated in newly synthesized DNA. The Edu positive subpopulation cells percentage was calculated as percent of the total cell counts. […]

Row | Compound | growth of tumor cell clusters (inhibition by tested drug)
1 | C[C@@H](Oc1cc(-c2cnn(C3CCNCC3)c2)cnc1N)c1c(Cl)ccc(F)c1Cl [crizotinib] | not completely inhibited
2 | C#Cc1cccc(Nc2ncnc3cc(OCCOC)c(OCCOC)cc23)c1 [erlotinib] | not completely inhibited
3 | O=C1[O][Pt]2([NH][C@@H]3CCCC[C@H]3[NH]2)[O]C1=O [oxaliplatin] | not completely inhibited
4 | CNC(=O)c1cc(Oc2ccc(NC(=O)Nc3ccc(Cl)c(C(F)(F)F)c3)cc2)ccn1 [sorafenib] | not completely inhibited
